Results: patent US20060110790A1, “Expression system for large functional proteins” (priority 2002, published 2006)

Biological target: T1, co-expressed N and C halves of ABCR (Homo sapiens, UniProt P78363)
T1 construct: The cDNAs coding for the N-half (amino acids 1-1325) and C-half (amino acids 1326-2273) of ABCR; made in house; host or cells: COS-1 cells, co-transfected
T1 sequence (P78363 1-1325): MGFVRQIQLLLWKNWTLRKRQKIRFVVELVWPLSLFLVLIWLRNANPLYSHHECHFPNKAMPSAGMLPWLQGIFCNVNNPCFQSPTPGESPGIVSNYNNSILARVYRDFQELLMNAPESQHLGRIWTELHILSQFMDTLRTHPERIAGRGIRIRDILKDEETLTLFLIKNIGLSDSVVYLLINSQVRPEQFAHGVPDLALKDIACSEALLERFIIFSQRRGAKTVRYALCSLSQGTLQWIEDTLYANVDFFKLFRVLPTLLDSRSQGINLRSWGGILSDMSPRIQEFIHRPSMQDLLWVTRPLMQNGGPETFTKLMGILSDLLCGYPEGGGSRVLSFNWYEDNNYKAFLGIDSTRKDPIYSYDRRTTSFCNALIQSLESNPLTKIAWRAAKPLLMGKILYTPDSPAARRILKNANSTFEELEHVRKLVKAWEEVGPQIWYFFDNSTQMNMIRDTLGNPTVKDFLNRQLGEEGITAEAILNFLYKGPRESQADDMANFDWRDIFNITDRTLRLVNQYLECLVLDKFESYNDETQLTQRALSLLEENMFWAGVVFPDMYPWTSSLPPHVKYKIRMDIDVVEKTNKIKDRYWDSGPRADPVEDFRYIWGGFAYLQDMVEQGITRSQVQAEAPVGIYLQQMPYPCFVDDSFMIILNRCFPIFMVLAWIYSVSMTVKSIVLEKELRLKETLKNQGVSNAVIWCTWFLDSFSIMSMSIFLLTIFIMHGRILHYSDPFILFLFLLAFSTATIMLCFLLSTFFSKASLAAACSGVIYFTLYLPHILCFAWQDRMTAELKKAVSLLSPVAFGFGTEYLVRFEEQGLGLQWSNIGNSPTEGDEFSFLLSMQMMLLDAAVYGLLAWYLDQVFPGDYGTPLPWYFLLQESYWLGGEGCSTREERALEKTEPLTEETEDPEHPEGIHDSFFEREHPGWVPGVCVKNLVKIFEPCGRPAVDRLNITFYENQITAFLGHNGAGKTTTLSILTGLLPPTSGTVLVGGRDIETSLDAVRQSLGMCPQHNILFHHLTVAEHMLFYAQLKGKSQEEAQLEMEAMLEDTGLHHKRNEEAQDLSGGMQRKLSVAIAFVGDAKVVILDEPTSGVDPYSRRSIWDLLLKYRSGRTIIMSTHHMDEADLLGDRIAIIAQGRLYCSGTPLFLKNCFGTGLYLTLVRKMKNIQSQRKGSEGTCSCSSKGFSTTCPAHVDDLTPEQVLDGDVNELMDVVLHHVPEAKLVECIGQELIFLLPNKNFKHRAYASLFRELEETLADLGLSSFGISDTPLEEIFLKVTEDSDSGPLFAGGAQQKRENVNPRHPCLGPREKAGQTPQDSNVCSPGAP
T1 sequence (P78363 1326-2273): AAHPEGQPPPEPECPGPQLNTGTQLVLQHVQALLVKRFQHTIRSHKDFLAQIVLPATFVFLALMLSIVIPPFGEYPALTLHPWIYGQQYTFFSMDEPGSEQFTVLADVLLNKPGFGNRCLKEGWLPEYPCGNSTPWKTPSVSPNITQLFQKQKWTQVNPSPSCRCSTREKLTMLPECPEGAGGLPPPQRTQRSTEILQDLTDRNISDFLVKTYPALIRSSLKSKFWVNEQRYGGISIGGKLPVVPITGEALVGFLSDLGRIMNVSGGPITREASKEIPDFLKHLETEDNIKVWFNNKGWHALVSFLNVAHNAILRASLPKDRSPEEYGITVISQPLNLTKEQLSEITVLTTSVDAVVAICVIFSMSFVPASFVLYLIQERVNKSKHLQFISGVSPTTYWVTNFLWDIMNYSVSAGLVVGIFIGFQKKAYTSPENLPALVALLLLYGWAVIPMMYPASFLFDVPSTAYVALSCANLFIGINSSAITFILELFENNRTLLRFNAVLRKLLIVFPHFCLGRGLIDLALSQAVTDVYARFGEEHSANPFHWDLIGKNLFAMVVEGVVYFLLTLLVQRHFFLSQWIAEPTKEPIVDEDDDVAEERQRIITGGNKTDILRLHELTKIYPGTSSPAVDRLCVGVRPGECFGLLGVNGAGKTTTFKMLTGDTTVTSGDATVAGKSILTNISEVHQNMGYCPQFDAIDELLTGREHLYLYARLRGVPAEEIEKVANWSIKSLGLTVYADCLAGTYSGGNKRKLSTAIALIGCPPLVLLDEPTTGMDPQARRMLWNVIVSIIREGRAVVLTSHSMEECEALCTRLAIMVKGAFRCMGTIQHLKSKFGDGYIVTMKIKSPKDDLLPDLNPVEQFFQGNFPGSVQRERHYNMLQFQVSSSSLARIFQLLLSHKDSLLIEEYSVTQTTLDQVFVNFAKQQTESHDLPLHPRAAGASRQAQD
Test: Retinal-stimulated ATPase activity of purified protein reconstituted in lipid vesicles
Assay type: biochemical
Details: expressed in COS-1 cells, purified on Rim 3F4 column, 50 μM [α32P]ATP
Protocol: Membranes (from two 10 cm dishes) were solubilized in 0.5 ml of 1% Triton-X100 in Buffer A (140 mM NaCl, 20 mM Tris-HCl, pH 7.4) for 20 min on ice. For ATPase assays, the membrane preparation step was omitted and the cell suspension was solubilized directly in Buffer B (10 mg/ml soybean phospholipids, 10% glycerol, 1 mM dithiothreitol, 100 mM NaCl, 3 mM MgCl2, 50 mM NaHEPES, pH 7.4) containing 18 mM CHAPS. The supernatant after a 10 min centrifugation at 40,000 rpm (TLA100.4 rotor) was mixed with 50 μl Rim3F4 Sepharose 2B for 1 h at 4° C. The beads were washed 6 times in Buffer A containing 0.2% Triton X-100 or Buffer B containing 10 mM CHAPS and eluted with 4% SDS (for electrophoresis) or 0.2 mg/ml Rim3F4 peptide (for reconstitution and determination of ATPase activity). Purified protein (24 μl) was incubated with 6 μl of 50 mg/ml lipid (1:1 mixture of dioleoylphosphatidylethanolamine and brain polar lipid, by weight) and 3 μl n-octylglucoside for 30 min on ice. The mixture was diluted rapidly with 200 μl of Buffer C (1 mM dithiothreitol, 140 mM NaCl, 25 mM NaHEPES, pH 7.4) and passed through a 200 μl Extracti-gel column (Pierce). The flow-through containing the reconstituted protein was used for determination of ATPase activity.
ATPase activity was measured as described previously (Ahn, J., Wong, J. T., and Molday, R. S. (2000) J Biol Chem 275(27), 20399-405) using 50 μM [α^32P]ATP and thin layer chromatography. The all-trans retinal concentration was determined spectrophotometrically (λ383 nm=42.88 mM^−1 cm^−1). Protein concentration was estimated from the eluate before reconstitution by laser densitometry of Coomassie blue stained gels using bovine serum albumin as a standard. […] Direct protein measurements after reconstitution by densitometry of Western blots was about half of that in the eluate. […]
ATPase Activity of Expressed N and C Halves—The basal and retinal activated ATPase activity of full-length ABCR and the N and C halves individually or co-expressed in COS-1 cells was determined after immunoaffinity purification and reconstitution into lipid vesicles. […]

stimulation of ATPase activity: 1-2 fold
SMILES: CC1=C(/C=C/C(C)=C/C=C/C(C)=C/C=O)C(C)(C)CCC1 [all-trans retinal]
